# Active and inactive are the calls of the source.
# Assays:
# [1] = viability of uninfected HEp-2 cells – cell-based, HTS, cytotoxicity control for RSV inhibitor project, dose response (AID 2410); format: functional; conditions: human respiratory syncytial virus
# cells [2] = assay: cells
# Aminopeptidase N = target: T1, Aminopeptidase N (Plasmodium falciparum FcB1/Columbia, UniProt O96935); assay: malaria alanyl aminopeptidase activity blockers – biochemical, fluorogenic H-Leu-NHMec substrate, 1536-well (AID 1445); parameters: species or system Plasmodium falciparum 3D7, 3D7
# T1 sequence (O96935 whole entry): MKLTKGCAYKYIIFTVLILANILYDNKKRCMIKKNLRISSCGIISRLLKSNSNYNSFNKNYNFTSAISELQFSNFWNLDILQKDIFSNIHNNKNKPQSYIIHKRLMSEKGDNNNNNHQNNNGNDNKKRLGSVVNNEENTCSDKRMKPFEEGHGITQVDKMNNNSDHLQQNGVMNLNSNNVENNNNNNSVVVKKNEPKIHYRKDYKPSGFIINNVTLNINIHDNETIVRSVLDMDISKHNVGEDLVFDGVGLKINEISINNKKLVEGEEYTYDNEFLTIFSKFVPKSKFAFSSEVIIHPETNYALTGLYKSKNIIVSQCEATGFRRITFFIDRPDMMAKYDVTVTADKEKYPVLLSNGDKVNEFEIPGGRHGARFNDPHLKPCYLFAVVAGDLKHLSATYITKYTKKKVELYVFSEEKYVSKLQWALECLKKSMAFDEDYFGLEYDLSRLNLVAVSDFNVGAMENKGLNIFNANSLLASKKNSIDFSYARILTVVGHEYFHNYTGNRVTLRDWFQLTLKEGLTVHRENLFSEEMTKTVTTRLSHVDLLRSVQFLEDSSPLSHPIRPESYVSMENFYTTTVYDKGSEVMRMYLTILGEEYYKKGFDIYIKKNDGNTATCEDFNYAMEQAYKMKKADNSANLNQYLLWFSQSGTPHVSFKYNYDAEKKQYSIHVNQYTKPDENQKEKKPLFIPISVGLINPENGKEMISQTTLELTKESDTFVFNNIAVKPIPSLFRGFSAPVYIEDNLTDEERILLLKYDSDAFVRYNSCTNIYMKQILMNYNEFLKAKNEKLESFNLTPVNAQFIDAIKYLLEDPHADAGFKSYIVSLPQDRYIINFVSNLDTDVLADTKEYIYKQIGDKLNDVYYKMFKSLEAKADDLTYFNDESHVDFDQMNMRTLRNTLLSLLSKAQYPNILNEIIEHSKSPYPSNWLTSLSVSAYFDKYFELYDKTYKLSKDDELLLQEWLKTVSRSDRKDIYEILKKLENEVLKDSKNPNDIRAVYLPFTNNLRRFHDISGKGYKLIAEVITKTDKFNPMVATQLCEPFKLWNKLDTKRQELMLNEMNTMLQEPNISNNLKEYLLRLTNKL
# [3] = reduced cellular PGC1a acetyl-lysine signal – cell-based, cherry-picked samples, dose response (AID 720514); format: functional;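 also: potency may reflect raised or lowered acetylation signal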
# [4] = Luminescence Cell-Based Dose Confirmation HTS to Identify Activators of 5'UTR Stem-Loop Driven Alpha-Synuclein mRNA Translation in H4 Neuroglioblastoma Cells. [Related pubchem assays: 1829 (Project Summary), 1814 (Primary HTS)]; format: functional
# [5] = Luminescence Cell-Based Dose Response HTS to Identify Activators of Luciferase Translation or Activity in H4 […] Cells. [Related pubchem assays: 1829 (Project Summary), 1814 (Primary HTS)]; format: functional
# [6] = THP-1 cell cytotoxicity, dose response, cytotoxicity control for non-replicating M. tuberculosis project (AID 489025); format: functional
# cells [7] = format: functional, cell-based
# cells [8] = format: functional, cell-based; remark: listed apart in the source
# cells [9] = format: functional
# H4 = assay: Luminescence Cell-Based Dose Response HTS to Identify Activators of 5'UTR Stem-Loop Driven Prion Protein mRNA Translation in H4 Neuroglioblastoma Cells. [Related pubchem assays: 1829 (Project Summary), 1814 (Primary HTS)]; format: functional; conditions: Homo sapiens
# [10] = inhibition of ADAM10 peptide cleavage – biochemical, FRET peptide substrate, recombinant human ADAM10, selectivity assay for ADAM17 exosite inhibitor project, dose response (AID 743259);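 also: ADAM10 enzyme cleaving a FRET peptide substrate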
# [11] = target: Disintegrin and metalloproteinase domain-containing protein 17 (Homo sapiens, UniProt P78536); assay: exosite inhibitors of ADAM17, dose response, biochemical (AID 743260)
# Sequence of Disintegrin and metalloproteinase domain-containing protein 17 (P78536 whole entry, the tested form may be a part): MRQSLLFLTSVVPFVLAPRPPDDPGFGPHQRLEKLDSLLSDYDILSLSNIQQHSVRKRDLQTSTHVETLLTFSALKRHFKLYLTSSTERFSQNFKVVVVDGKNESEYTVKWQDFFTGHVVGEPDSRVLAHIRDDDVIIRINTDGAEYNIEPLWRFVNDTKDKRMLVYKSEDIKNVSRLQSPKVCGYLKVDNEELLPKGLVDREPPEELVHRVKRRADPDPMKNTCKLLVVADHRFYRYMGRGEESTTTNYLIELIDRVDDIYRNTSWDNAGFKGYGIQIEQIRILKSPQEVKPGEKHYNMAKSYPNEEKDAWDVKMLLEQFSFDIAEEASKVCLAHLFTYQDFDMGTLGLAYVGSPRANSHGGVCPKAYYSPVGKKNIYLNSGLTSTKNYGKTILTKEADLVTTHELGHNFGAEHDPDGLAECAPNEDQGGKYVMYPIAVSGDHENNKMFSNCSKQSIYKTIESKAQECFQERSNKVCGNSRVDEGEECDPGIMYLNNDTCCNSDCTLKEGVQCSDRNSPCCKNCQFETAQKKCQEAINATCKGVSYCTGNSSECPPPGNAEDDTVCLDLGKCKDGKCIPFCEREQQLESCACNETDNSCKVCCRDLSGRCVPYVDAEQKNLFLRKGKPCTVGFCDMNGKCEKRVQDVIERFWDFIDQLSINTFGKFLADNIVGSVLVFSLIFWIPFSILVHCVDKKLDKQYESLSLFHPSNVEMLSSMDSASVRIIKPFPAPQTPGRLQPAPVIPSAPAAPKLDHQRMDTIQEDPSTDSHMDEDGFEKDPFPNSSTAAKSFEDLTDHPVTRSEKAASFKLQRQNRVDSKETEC
# Nonstructural protein 1 = Nonstructural protein 1 (Influenza A virus, UniProt Q194T2); format: functional, Influenza A virus (A/California/07/2009(H1N1))
# Sequence of Nonstructural protein 1 (Q194T2 whole entry): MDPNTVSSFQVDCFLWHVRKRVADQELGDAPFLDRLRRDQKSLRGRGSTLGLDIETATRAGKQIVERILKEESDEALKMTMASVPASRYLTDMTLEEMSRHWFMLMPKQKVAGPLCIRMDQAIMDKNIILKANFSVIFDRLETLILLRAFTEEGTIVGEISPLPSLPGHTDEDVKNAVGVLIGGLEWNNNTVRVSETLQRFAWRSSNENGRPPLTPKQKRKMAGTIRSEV
# [12] = target: T2, Heat shock factor protein 1 (Mus musculus, UniProt P38532); assay: enhancement of HSF1-driven luciferase signal – cell-based, NIH3T3, luminescence, dose retest, confirmation (AID 435004); format: functional;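 also: stress induced by proteasome inhibitor MG132 added 30 min after compound; luciferase reporter driven by HSF1 response element in NIH3T3 cells; actives raise luminescence as potentiators of the MG132 stress response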
# T2 sequence (P38532 whole entry): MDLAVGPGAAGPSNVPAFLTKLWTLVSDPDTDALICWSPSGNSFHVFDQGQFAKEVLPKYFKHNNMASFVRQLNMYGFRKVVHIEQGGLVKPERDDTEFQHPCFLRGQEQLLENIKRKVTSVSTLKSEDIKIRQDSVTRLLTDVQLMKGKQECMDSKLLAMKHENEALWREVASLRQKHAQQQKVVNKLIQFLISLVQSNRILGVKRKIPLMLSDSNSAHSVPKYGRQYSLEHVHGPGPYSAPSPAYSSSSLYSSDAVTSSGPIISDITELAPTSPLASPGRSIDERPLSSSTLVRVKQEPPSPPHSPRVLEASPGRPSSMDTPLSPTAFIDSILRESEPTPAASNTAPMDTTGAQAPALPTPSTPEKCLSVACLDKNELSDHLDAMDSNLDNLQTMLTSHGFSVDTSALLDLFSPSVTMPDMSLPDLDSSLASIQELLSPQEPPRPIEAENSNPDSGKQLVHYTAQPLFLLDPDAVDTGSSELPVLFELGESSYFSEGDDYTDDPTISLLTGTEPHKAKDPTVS
# [13] = target: T3, Replicative DNA helicase DnaB (Mycobacterium tuberculosis, UniProt P9WMR3); assay: DnaB intein splicing inhibitors, dose response, biochemical, cell-free fluorescence (AID 449749); format: functional
# T3 sequence (P9WMR3 whole entry): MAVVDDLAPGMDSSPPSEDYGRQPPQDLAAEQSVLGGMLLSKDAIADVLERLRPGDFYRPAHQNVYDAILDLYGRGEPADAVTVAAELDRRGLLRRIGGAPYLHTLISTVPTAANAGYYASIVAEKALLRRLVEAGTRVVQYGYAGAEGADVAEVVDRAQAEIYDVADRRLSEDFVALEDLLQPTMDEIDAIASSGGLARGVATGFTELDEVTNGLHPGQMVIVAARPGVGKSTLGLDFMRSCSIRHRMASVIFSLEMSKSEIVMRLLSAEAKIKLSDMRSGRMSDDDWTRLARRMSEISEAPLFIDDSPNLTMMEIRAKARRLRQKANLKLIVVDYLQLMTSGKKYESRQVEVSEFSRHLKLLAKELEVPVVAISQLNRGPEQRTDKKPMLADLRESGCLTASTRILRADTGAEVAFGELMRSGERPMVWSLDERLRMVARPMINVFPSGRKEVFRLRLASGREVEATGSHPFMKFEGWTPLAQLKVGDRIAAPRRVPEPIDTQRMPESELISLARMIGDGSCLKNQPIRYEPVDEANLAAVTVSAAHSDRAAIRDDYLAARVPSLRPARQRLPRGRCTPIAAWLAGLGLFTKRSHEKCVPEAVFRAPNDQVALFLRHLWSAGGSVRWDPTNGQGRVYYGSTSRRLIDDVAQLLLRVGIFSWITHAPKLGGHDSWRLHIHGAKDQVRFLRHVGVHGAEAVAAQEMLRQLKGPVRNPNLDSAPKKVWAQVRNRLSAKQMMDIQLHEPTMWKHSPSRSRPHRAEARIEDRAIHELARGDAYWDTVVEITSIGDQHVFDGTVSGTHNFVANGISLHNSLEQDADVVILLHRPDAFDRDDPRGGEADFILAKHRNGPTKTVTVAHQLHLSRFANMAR
# Protein RecA = target: T4, Protein RecA (Mycobacterium tuberculosis, UniProt P9WHJ3); assay: Fluorescence Cell-Free Homogeneous Dose Retest to Identify Inhibitors of RecA-Intein Splicing Activity. [Related pubchem assays (depositor defined):AID2097, AID2223, AID489010, AID492950]; format: functional
# T4 sequence (P9WHJ3 whole entry): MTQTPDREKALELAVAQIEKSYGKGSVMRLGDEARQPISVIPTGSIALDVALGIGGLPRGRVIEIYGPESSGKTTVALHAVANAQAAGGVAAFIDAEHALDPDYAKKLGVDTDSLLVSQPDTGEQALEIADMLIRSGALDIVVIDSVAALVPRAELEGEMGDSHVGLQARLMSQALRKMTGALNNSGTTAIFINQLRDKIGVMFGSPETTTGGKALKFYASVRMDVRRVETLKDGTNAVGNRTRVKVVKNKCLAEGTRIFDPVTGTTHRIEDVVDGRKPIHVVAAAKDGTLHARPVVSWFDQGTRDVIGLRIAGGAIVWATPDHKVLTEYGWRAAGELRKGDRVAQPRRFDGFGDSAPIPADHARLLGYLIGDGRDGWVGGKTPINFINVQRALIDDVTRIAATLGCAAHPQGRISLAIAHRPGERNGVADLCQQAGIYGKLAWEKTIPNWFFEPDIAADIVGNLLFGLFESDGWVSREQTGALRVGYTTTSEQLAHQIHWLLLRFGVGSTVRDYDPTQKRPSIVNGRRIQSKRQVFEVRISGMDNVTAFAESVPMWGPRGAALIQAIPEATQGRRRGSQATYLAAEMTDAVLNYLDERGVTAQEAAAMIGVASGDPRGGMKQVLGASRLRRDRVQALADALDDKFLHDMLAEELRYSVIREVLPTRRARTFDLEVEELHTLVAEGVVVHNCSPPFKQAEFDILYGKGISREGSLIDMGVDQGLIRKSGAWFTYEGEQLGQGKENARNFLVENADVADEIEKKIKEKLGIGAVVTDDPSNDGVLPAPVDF
# [14] = intracellular Trypanosoma cruzi inhibitors in host cells – cell-based, plate reader, cherry-pick samples, set 3, dose response (AID 651818); format: functional;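 also: compounds incubated with infected cells for about four days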
# [15] = HIV-1 AD8 envelope cell-cell fusion blockers – cherry-pick, dose response (AID 652062); format: functional, cell-based;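 also: luciferase signal from cell-cell fusion driven by HIV-1 clade B AD8 Env; potency is for inhibitors of fusion seen as a drop in luminescence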
# [16] = blockers of HIV-1 ZM109 envelope-driven cell-cell fusion – HeLa effector, CEM target cells, luciferase, cherry-pick, dose response (AID 652058); format: functional, cell-based;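 also: luciferase signal from HIV-1 Env mediated cell-cell fusion of effector and target cells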
# [17] = blockers of HIV-1 envelope-mediated cell-cell fusion – cherry-pick, dose response (AID 652057); format: functional, cell-based
structure (smiles),measurement,setting,value
CC(C)[C@H](NC(=O)N1CCn2c1nc1ccccc12)C(=O)NCc1ccccc1Cl,CC50,[1],46.3 µM (active)
same,IC50,cells [2],35.8 µM (active)
COc1ccc(C(=O)NNC(=O)CSc2nnc(-c3ccc(O)cc3)n2C)cc1,IC50,Aminopeptidase N,56.8 µM (active)
Cc1cc(OCC(=O)NNC(=O)c2cnccn2)cc(C)c1Cl,AC50,[3],29.6 µM (active)
Cc1ccc(-n2c(=O)c3sccc3n(Cc3cc(=O)n4ccccc4n3)c2=O)cc1F,IC50,cells [2],9.86 µM (active)
CC(=O)N1C(=O)/C(=C2\SC(=S)N(NS(=O)(=O)c3ccc(C)cc3)C2=O)c2ccccc21,IC50,Aminopeptidase N,3.22 µM (active)
CCc1ccc(OCC(=O)Nc2ccncc2)c(Br)c1,EC50,[4],13.9 µM (active)
same,EC50,[5],17.4 µM (active)
same,CC50,[6],> 40 µM (active)
same,EC50,cells [7],> 350 µM (not active)
same,EC50,cells [8],> 350 µM (not active)
same,IC50,cells [9],38.1 µM (active)
same,EC50,H4,> 120 µM (not active)
O=c1c2cc(Cl)ccc2oc2nc3n(c(=O)c12)CCCS3,CC50,[6],> 40 µM (active)
same,IC50,cells [9],2.92 µM (active)
Nc1cc(OC(=O)c2c(F)cccc2Cl)nn1S(=O)(=O)c1ccccc1,IC50,[10],> 69.5 µM (inactive)
same,IC50,[11],> 69.5 µM (inactive)
COc1ccc(S(=O)(=O)NCC(c2ccco2)N2CCc3ccccc32)cc1 (stereo unspecified),IC50,[10],38.4 µM (inactive)
same,IC50,[11],> 69.5 µM (inactive)
CCOc1ccc(CNc2ccc(N3CCN(Cc4ccccc4)CC3)cc2)cc1,IC50,Nonstructural protein 1,49.6 µM (active)
same,EC50,[12],> 260 µM (inactive)
CC1(O)N(Cc2ccccc2)C(=O)OC12CCCCC2 (stereo unspecified),IC50,[10],> 69.5 µM (inactive)
same,IC50,[11],> 69.5 µM (inactive)
Cc1cc(C)c(NC(=O)c2ccc(S(=O)(=O)N(C)C)cc2)c(C)n1,AC50,[3],29.4 µM (active)
Cc1ccc2c(c1)-c1c(ssc1=S)C(C)(C)N2C(=O)CSC1=NCCS1,AC50,[13],28.3 µM (active)
same,IC50,Nonstructural protein 1,24.9 µM (active)
same,EC50,Protein RecA,9.8 µM (active)
COc1ccc(S(=O)(=O)NC2=NC(=O)/C(=C\c3ccco3)S2)cc1,IC50,Aminopeptidase N,99.1 µM (active)
Cc1ccc2c(c1)[C@H]1[C@H](CO2)[C@H](c2ccccc2)[C@]2(C)C(=O)N(Cc3ccc(Cl)cc3)CC(=O)N12,IC50,[10],> 69.5 µM (inactive)
same,IC50,[11],> 69.5 µM (inactive)
COCCOc1ccc(C(F)(F)F)cc1NC(=O)CN1C(=O)NC2(CCCc3ccccc32)C1=O (stereo unspecified),AC50,[3],33.9 µM (active)
C[C@@H]1CCCCO[C@@H](CN(C)Cc2ccc(C(F)(F)F)cc2)[C@@H](C)CN([C@H](C)CO)C(=O)c2cc(NC(=O)NC3CCCCC3)ccc2O1,AC50,[14],6.76 µM (active)
COc1ccccc1NC(=O)N[C@@H]1C=C[C@H](CC(=O)N[C@H](C)c2ccccc2)O[C@H]1CO,AC50,[15],6.98 µM (active)
same,AC50,[16],7.16 µM (active)
same,AC50,[17],8.31 µM (active)
O=C(C[C@@H]1CC[C@H]2[C@@H](COC[C@@H](O)CN2Cc2ccc(Oc3ccccc3)cc2)O1)N1CCN(c2ccccc2)CC1,AC50,[15],4.07 µM (active)
same,AC50,[16],20.4 µM (active)
same,AC50,[17],22.3 µM (active)
C[C@H](C(=O)N(C)C[C@@H]1OCc2ccccc2-c2ccccc2C(=O)N([C@H](C)CO)C[C@@H]1C)c1ccccc1,AC50,[15],< 0.26 µM (active)
same,AC50,[17],< 0.26 µM (active)
C[C@@H]1CN([C@@H](C)CO)S(=O)(=O)c2ccc(-c3ccc(F)cc3)cc2O[C@H]1CN(C)C(=O)C1CCCCC1,AC50,[3],17.1 µM (active)

# — ChEMBL document CHEMBL1201862, “PubChem BioAssay data set” (2004)
